From US9526712B2, “Methods and agents for preventing and treating plasma cell dyscrasias” (NEW YORK UNIVERSITY, priority 2013, dated 2016)

Legend:
[1] = system: KMS11 and ARP-1 MM cells expressing Gluc; experiment: Gluc (Gaussia luciferase) secretion screen; assay type: cell-based, human; conditions: 5 μM compound, 24 hours, % RLU relative to DMSO control
From the text: Using decreased protein processing in the secretory pathway as a measurable hallmark of ER stress, the screen described herein employs the naturally secreted Gaussia luciferase (Gluc) as a reporter that can be easily monitored through extracellular release of luciferase activity in real time. KMS11 and ARP-1 MM cells expressing Gluc were exposed to compounds in a natural products library in order to identify those which potentially induce ER stress as measured by inhibition of Gluc secretion. Both KMS11 and ARP-1 are human MM cells lines routinely used in the literature as in vitro models of MM. See, for example, Paterson et al., Br J Haematol, 2004, 124, 595-603; Pedranzini et al., Cancer Res, 2006, 66, 9714-9721; Stein et al., Clin Cancer Res, 2009, 15, 2808-2817; St-Germain J R. et al., Proc Natl Acad Sci USA, 2009, 106, 20127-20132; Gojo et al., Clin Cancer Res, 2002, 8, 3527-3538; Drucker et al., Carcinogenesis, 2006, 27, 197-204; Weiss et al., Br J Cancer, 2012, 107, 1844-1852; and Wang et al., Clin Cancer Res, 2006, 12, 49-56; the entire content of each of which is incorporated herein by reference. […] For screening, KMS11 and ARP1 cells were seeded in 96-well plates and treated with 5 μM of compounds from the Spectrum library (Microsource Discoveries) for 24 hours. Conditioned medium from each compound treatment was harvested to assay Gluc secretion alongside samples treated with DMSO alone, BTZ and TM as controls. Compounds of interest were considered to be those that inhibit Gluc secretion in both cell lines at least 30% after 24 hours treatment. See, for example, FIG. 1. […] For screening, […] Conditioned medium from each compound treatment was harvested to assay Gluc secretion alongside samples treated with DMSO alone, BTZ and TM as controls. Compounds of interest were considered to be those that inhibit Gluc secretion in both cell lines by at least 30% after 24 hours treatment. […]

ARP1 MM cells = experiment: Cellular proliferation by MTT assay (CellTiter 96 AQ); assay type: cell-based; conditions: Homo sapiens, ARP-1, 72 hr treatment
From the text: (§1) The growth inhibitory activity of SAC was further characterized by MTT assay. These experiments assess cellular proliferation using the CellTiter 96 AQ Non-Radioactive Cell Proliferation Assay (Promega). This assay determines the number of living cells based upon the bioreduction of MTS tetrazolium compound into a colored formazan product. The quantity of product, as measured by absorbance on a microplate reader at 495 nm, is directly proportional to the number of living cells in culture. All cells were seeded in 96-well plates at a density of 5,000 cells per well. After overnight incubation, cells were treated with SAC at the indicated concentrations. After a 72 hr incubation period, proliferation was assessed. Cellular proliferation was expressed as a percentage with vehicle-treated cells set at 100%. See, for example, FIG. 2.
(§2) The cell proliferation assay performed to generate the results presented in FIG. 5, for example, was performed as described elsewhere herein. Briefly, all cells were seeded in 96-well plates at a density of 5000 cells per well. After overnight incubation, cells were treated with a candidate compound at concentrations ranging from 100 nM to 10000 nM. After a 72 hr incubation period, proliferation was assessed using a tetrazolium dye reduction assay (CellTiter 96 AQueous Non-Radioactive Cell Proliferation Assay; Promega, Madison, Wis.). Absorbance was recorded on a microplate reader at 490 nm. Cellular proliferation was expressed as a percentage with vehicle-treated cells set at 100%. Each assay was performed in triplicate with mean values reported.

KMS11 MM cells [2] = experiment: as above; assay type: cell-based; conditions: Homo sapiens, KMS-11, 72 hr treatment
From the text: as §1, §2

KMS11 MM cells [3] = experiment: Western blotting of UPR markers and apoptotic marker; assay type: cell-based, human; conditions: western blot
From the text: In order to investigate the mechanism of SAC mediated ER stress response, the present inventors evaluated key unfolded protein response (UPR) markers including phospho-eIF2α and BIP as well as the apoptotic marker cleaved PARP by standard western blotting techniques. […] See also FIG. 3.

[4] = system: panel of 60 different cancer cell lines; experiment: NCI 60 cell screen growth inhibitory activity; assay type: cell-based; conditions: NCI 60 cell panel
From the text: Although SAC has been used to treat other types of cancer including colon, lung, breast and liver, the present inventors are unaware of any studies pertaining to its efficacy in MM, MGUS or SMM. One major difference between these types of cancers relates to the fact that those that have been assessed with regard to SAC' s efficacy are solid tumors, whereas MM is a blood cancer. Further to this point, the present inventors submitted SAC for analysis in the Developmental Therapeutics Program at the NCI/NIH. The growth inhibitory activity of SAC was assessed in the NCI 60 cell screen, which is a panel of 60 different cancer cell lines. […] SAC anti-cancer activity must, therefore, be determined empirically for each cancer, due to the lack of predictability of response. Therefore, a compound's ability to act as a therapeutic agent in one cancer, e.g. colon, is not necessarily predictive of its properties with respect to a different cancer, even a related cancer. It is also noteworthy that no MM cell lines are represented in the 60 cell panel. This underscores the fact that, in advance of the present findings, MM cell lines were not thought to be suitable targets for examining SAC anti-cancer activity.

[5] = system: KMS11 and ARP1 multiple myeloma cells; experiment: XBP1 cleavage assay (semi-quantitative RT-PCR); assay type: cell-based, human; conditions: 0.5 uM SAC, 24 hours
Description: The XBP1 cleavage assay used to generate the results presented in FIG. 6 was performed as follows. KMS11 and ARP1 cells were treated with 0.5 uM SAC or 10 ng/ml tunicamycin (TM, positive control) for 24 hours. Total RNA was isolated from lysed cells with the RNeasy Mini kit (Qiagen, Germantown, Md., USA). XBP1 splicing was assessed by semi-quantitative RT-PCR as described previously (Lin, et al. Science, 2007. 318(5852):944-9; Manga et al. Pigment Cell Melanoma Res, 2010. 23(5):627-34; the entire content of each of which is incorporated herein by reference). cDNA was produced from total RNA preps using ImProm-II Reverse Transcription System (Promega). Primers spanning the fragment of XBP1 containing the intron targeted by Irela were used: 5′-[…]-3′ and 5′-[…]-3′. The thermal PCR cycling conditions are as follows: 95° C. for 5 min, 95° C. for 1 min, 58° C. for 30 s, 72° C. for 30 s, and 72° C. for 5 min with 35 cycles of amplification. In order to properly distinguish the PCR products, samples were digested with Pst1 (New England Biolabs, Ipswich, Mass., USA) that only cuts the unspliced cDNA (Calfon et al. Nature, 2002. 415(6867):92-6). Products were then separated on a 2.0% agarose/1× TAE gel and visualized by ethidium bromide.

[6] = system: bone marrow (BM) mononuclear cells isolated from a patient with smoldering multiple myeloma (SMM); experiment: Cellular proliferation of SMM bone marrow mononuclear cells; assay type: cell-based, human; conditions: 100 nM to 10000 nM, 72 hr
From the text: To explore the effects of SAC in the context of SMM, the present inventors tested the activity of SAC in bone marrow (BM) mononuclear cells isolated from a patient with smoldering multiple myeloma (SMM). To isolate the BM mononuclear cells, heparinized BM samples were freshly obtained from a SMM patient, diluted in PBS, and subjected to Ficoll-Hypaque density separation. Mononuclear cells are carefully collected from the PBS-Ficoll interface, washed in PBS and pelleted. The cell proliferation assay was performed by seeding the SMM BM mononuclear cells in 96-well plates at a density of 5000 cells per well. After overnight incubation, cells were treated with SAC at concentrations ranging from 100 nM to 10000 nM. After a 72 hr incubation period, proliferation was assessed using a tetrazolium dye reduction assay (CellTiter 96 AQueous Non-Radioactive Cell Proliferation Assay; Promega, Madison, Wis.). Absorbance was recorded on a microplate reader at 490 nm. Cellular proliferation was expressed as a percentage with vehicle-treated cells set at 100%. Each assay was performed in triplicate with mean values reported.

C=CCSC[C@H](N)C(=O)O [SAC, S-allylcysteine]
inhibition of Gluc secretion [1]: inhibited Gluc secretion as effectively as 5 μM BTZ | IC50 (ARP1 MM cells): 1.9 µM | IC50 (KMS11 MM cells [2]): 1.5 µM | BIP expression (KMS11 MM cells [3]): increased BIP expression | cleavage of PARP (KMS11 MM cells [3]): cleavage of PARP | phosphorylation of eIF2-α (KMS11 MM cells [3]): enhanced phosphorylation of eIF2-α | mean growth percent across all 60 cell lines [4]: 106 | splicing of XBP1 [5]: enhanced splicing of the UPR transcription factor XBP1 | inhibition of cellular proliferation [6]: dose-dependent inhibition of cellular proliferation

CCCSC[C@H](N)C(=O)O [SPC, S-propyl cysteine, reference compound]
IC50 (ARP1 MM cells): > 10 µM | IC50 (KMS11 MM cells [2]): > 10 µM

C=CC[S+]([O-])C[C@H](N)C(=O)O (stereo partly shown) [alliin, Allylcysteine sulfoxide]
inhibition of Gluc secretion [1]: not found to be effective at inhibiting GLUC secretion | inhibition of Gluc secretion ([1]; listed as alliicin): did not exhibit an ability to target ER stress mediated pathways
